In patent US20240368163A1, “COMPOUNDS AND METHODS FOR MODULATING SPLICING” (REMIX THERAPEUTICS INC., priority 2021, published 2024):
Like-named read-outs stand apart in the source and are kept apart here.

Assays:
Type in all cases: cell-based, human
HTT [1] = assay: Splicing RT-qPCR assay, HTT mRNA canonical junction (CJ) and alternative junction (AJ); conditions: for AC50: increase in AJ mRNA
Protocol: (§1) Compounds described herein were used to modulate RNA transcript abundance in cells. The expression of a target mRNA was measured by detecting the formation of an exon-exon junction in the canonical transcript (CJ). A compound mediated exon-inclusion event was detected by observing an increase in formation of a new junction with an alternative exon (AJ). Real-time qPCR assays were used to detect these splicing switches and interrogate the potency of various compounds towards different target genes. A high-throughput real time quantitative PCR (RT-qPCR) assay was developed to measure these two isoforms of the mRNA (CJ and AJ) for exemplary genes, such as HTT, SMN2, and MYB, together with a control housekeeping gene, GAPDH or GUSB or PPIA, used for normalization. Briefly, the A673 or K562 cell line was treated with various compounds described herein (e.g., compounds of Formula (I)). After treatment, the levels of the HTT, MYB, or SMN2 mRNA targets were determined from each sample of cell lysate by cDNA synthesis followed by qPCR.
(§2) The A673 cell line was cultured in DMEM with 10% FBS. Cells were diluted with full growth media and plated in a 96-well plate (15,000 cells in 100 ul media per well). The plate was incubated at 37° C. with 5% CO2 for 24 hours to allow cells to adhere. An 11-point 3-fold serial dilution of the compounds was made in DMSO then diluted in media in an intermediate plate. Compounds were transferred from the intermediate plate to the cell plate with the top dose at a final concentration of 10 uM in the well. Final DMSO concentration was kept at or below 0.25%. The cell plate was returned to the incubator at 37° C. with 5% CO2 for an additional 24 hours.
(§3) The K562 cell line was cultured in IMDM with 10% FBS. For K562, cells were diluted with full growth media and plated in either a 96-well plate (50,000 cells in 50 uL media per well) or a 384-well plate (8,000-40,000 cells in 45 uL media per well). An 11-point 3-fold serial dilution of the compounds were made in DMSO then diluted in media in an intermediate plate. Compound was transferred from the intermediate plate to the cell plate with the top dose at a final concentration of 10 uM in the well. Final DMSO concentration was kept at or below 0.25%. Final volume was 100 uL for 96-well plate and 50 uL for 384-well plate. The cell plate was then placed in an incubator at 37° C. with 5% CO2 for 24 hours.
(§4) The cells were then gently washed with 50 uL-100 uL cold PBS before proceeding to addition of lysis buffer. 30 uL-50 μL of room temperature lysis buffer with DNAse I (and optionally RNAsin) was added to each well. Cells were shaken/mixed thoroughly at room temperature for 5-10 minutes for lysis to take place and then 3 uL-5 μL of room temperature stop solution was added and wells were shaken/mixed again. After 2-5 minutes, the cell lysate plate was transferred to ice for RT-qPCR reaction setup. The lysates could also be frozen at −80° C. for later use.
(§5) In some cases, a direct lysis buffer was used. An appropriate volume of 3× lysis buffer (10 mM Tris, 150 mM NaCl, 1.5%-2.5% Igepal and 0.1-1 U/uL RNAsin, pH 7.4) was directly added to either K562 or A673 cells in media and mixed by pipetting 3 times. The plates were then incubated at room temperature with shaking/rocking for 20-50 minutes to allow for lysis to take place. After this time, the cell lysate plate was transferred to ice to set up for the RT-qPCR reactions. The lysates could also be frozen at −80° C. for later use.
(§6) To set up 10 uL RT-qPCR reactions, cell lysates were transferred to 384-well qPCR plates containing the master mix according to the table below. The plates were sealed, gently vortexed, and spun down before the run. The volumes were adjusted accordingly in some instances where the reaction was carried in 20 μL. The table below summarizes the components of the RT-qPCR reactions:
(§7) The RT-qPCR reaction was performed using a QuantStudio (ThermoFisher) under the following fast cycling conditions. […]

MYB [2] = assay: Splicing RT-qPCR assay, MYB mRNA canonical junction (CJ) and alternative junction (AJ); conditions: for AC50: increase in AJ mRNA
Protocol: as §1, §2, §3, §4, §5, §6, §7

SMN2 = assay: Splicing RT-qPCR panel, SMN2 canonical junction (CJ) mRNA; conditions: read-out: SMN2 IC50 (decrease in CJ mRNA levels)
Protocol: as §1, §2, §3, §4, §5, §6, §7

Target C [3] = assay: Splicing RT-qPCR panel, Target C canonical junction (CJ) mRNA; conditions: read-out: Target C IC50 (decrease in CJ mRNA levels)
Protocol: as §1, §2, §3, §4, §5, §6, §7

MYB [4] = assay: HiBiT protein abundance assay, MYB; conditions: Table 13A, modified K562 cells
Protocol: (§8) Compounds described herein were used to screen for effects on quantitative protein abundance using a HiBit assay system (Promega). Quantitative protein abundance was determined by measuring the protein levels of HiBit-tagged protein targets expressed in cell culture via luminescence using the Nano-Glo HiBiT Lytic Detection System, which uses a split complementation assay format to reconstitute NanoBiT enzyme to generate a luminescent signal. A protein abundance assay was developed such that endogenous protein targets could be modified with the HiBiT peptide tag and their abundance could be assessed after compound treatment. Briefly, K562 cell lines containing a HiBiT-modification were treated with various compounds described herein (e.g., compounds of Formulas (I), (II), or (III)). After treatment for 24 hours, the protein abundance of a specific target was determined by measuring luminescence.
(§9) Cells were maintained in IMIDM with 10% FBS. Before the assay, cells were diluted with […] growth media (IMIDM+[…] media) and were seeded in a 384-well plate at a density of 10000 cells/well (for each cell line listed in Table 12). Each compound was prepared as a 10-point 3-fold serial dilution in DMSO with the top dose at a final concentration of 10 μM in the well. Unmodified K562 cells were added at the previously specified density with DMSO to serve as an assay baseline and positive control (PC) and DMSO only with the respective modified cell lines was added to the negative control (NC) columns. Final DMSO concentration was kept at or below 0.25%. Treated cell plates were placed in an incubator at 37° C. with 5% CO2 for 24 hours. After 24 hours, 25 μL of Complete HiBit Lytic reagent was added to each well at room temperature (e.g. one plate requiring 10 mL Lytic Buffer, 100 μL LgBiT Protein, 200 μL Lytic Substrate), shaken for 5 minutes at 600 RPM, then left to sit for 10 minutes for signal to stabilize before reading on a Spark Cyto plate reader (Tecan) with a 500 ms measurement time.
(§10) To determine compound effects on protein abundance of each target in Table 12, the percent response for each respective cell line was calculated at each compound concentration as follows:
(§11) For the normalized response at each concentration, a four-parameter logistical regression was fit to the data and the response was interpolated at the 50% value to determine a concentration for protein abundance at 50% (IC50) the untreated control.

HTT [5] = assay: HiBiT protein abundance assay, HTT; conditions: Table 13A, modified K562 cells
Protocol: as §8, §9, §10, §11

Target C [6] = assay: HiBiT protein abundance assay, Target C; conditions: Homo sapiens, K562, 24 h, Table 13A, modified K562 cells
Protocol: • Promega Nano-Glo HiBiT Lytic Detection System (cat #N3030) • Coming 384-well TC-treated microplates (cat #3570) • Synthego Engineered Cells Knock-In Clones
as §9, §10, §11

[7] = Homo sapiens, 24 h, decrease in CJ mRNA, A673 or K562 cells, 24 hours treatment, RT-qPCR, read-out: HTT CJ IC50
[8] = Homo sapiens, 24 h, A673 or K562 cells, 24 hours treatment, RT-qPCR
[9] = Homo sapiens, RT-qPCR panel, canonical junction mRNA, compound concentration having 50% response in CJ decrease, read-out: HTT IC50 (decrease in CJ mRNA levels)
[10] = Homo sapiens, 24 h, decrease in CJ mRNA, A673 or K562 cells, 24 hours treatment, RT-qPCR, read-out: MYB CJ IC50
[11] = Homo sapiens, RT-qPCR panel, canonical junction mRNA, compound concentration having 50% response in CJ decrease, read-out: MYB IC50 (decrease in CJ mRNA levels)
[12] = Homo sapiens, RT-qPCR panel, canonical junction mRNA, compound concentration having 50% response in CJ decrease
[13] = RT-qPCR panel, canonical junction mRNA, compound concentration having 50% response in CJ decrease
[14] = Homo sapiens, gene panel, CJ qPCR, protocol of Example 142

| SMILES | IC50 (HTT [1]; [7]) [µM] | AC50 (HTT [1]; [8]) [µM] | IC50 (HTT [1]; [9]) [µM] | IC50 (MYB [2]; [10]) [µM] | AC50 (MYB [2]; [8]) [µM] | IC50 (MYB [2]; [11]) [µM] | IC50 (SMN2; [12]) [µM] | IC50 (Target C [3]; [12]) [µM] | IC50 (MYB [4]; Homo sapiens, K562, 24 h) [µM] | IC50 (HTT [5]; Homo sapiens, K562, 24 h) [µM] | IC50 (Target C [6]) [µM] | also measured |
| --- | --- | --- | --- | --- | --- | --- | --- | --- | --- | --- | --- | --- |
| CN(c1ccc(-c2ccc(-n3cccn3)c3nc[nH]c23)nn1)[C@@H]1C[C@H]2CC[C@@H](C1)N2 [Compound 170] | 1 to 10 | 1 to 10 | 1 to 10 | 1 to 10 | 1 to 10 | 1 to 10 | 0.1 to 1 | > 10 | 1 to 10 | 1 to 10 | > 10 | – |
| CN(c1ccc(-c2ccc(-c3ccn(C)c(=O)c3)c3scnc23)nn1)C1CC(C)(C)NC(C)(C)C1 [Compound 174] | 1 to 10 | 1 to 10 | 1 to 10 | 1 to 10 | 1 to 10 | 1 to 10 | 0.1 to 1 | > 10 | 1 to 10 | 0.1 to 1 | > 10 | – |
| c1cnn(-c2ccc(-c3cnc(N4CCNC(C5CC5)C4)nn3)c3cn[nH]c23)c1 (stereo not drawn) [Compound 555] | – | – | – | – | – | – | – | – | – | – | – | IC50 (HTT [1]; RT-qPCR panel, canonical junction mRNA, compound concentration having 50% response in CJ decrease, read-out: HTT IC50 (decrease in CJ mRNA levels)): < 0.1 µM; IC50 (MYB [2]; RT-qPCR panel, canonical junction mRNA, compound concentration having 50% response in CJ decrease, read-out: MYB IC50 (decrease in CJ mRNA levels)): 1 to 10 µM; IC50 (SMN2; [13]): 0.1 to 1 µM; IC50 (Target C [3]; [13]): 0.1 to 1 µM; IC50 (MYB [4]; 24 hours): 1 to 10 µM; IC50 (HTT [5]; 24 hours): 0.1 to 1 µM |
| c1cnn(-c2ccc(-c3cnc(O[C@H]4C[C@H]5COC[C@@H](C4)N5)nn3)c3cn[nH]c23)c1 [Compound 585] | – | – | > 10 | – | – | > 10 | > 10 | > 10 | – | – | – | – |
| COc1nc(-c2ccc(OC3CC(C)(C)NC(C)(C)C3)nc2)ccc1-c1cnn(C)c1 [Compound 990] | – | – | – | – | – | – | – | – | – | – | – | IC50 (HTT [1]; Homo sapiens, gene panel, CJ qPCR, protocol of Example 142, read-out: HTT IC50 (decrease in CJ mRNA levels)): > 10 µM; IC50 (MYB [2]; Homo sapiens, gene panel, CJ qPCR, protocol of Example 142, read-out: MYB IC50 (decrease in CJ mRNA levels)): > 10 µM; IC50 (SMN2; [14]): 1 to 10 µM; IC50 (Target C [3]; [14]): > 10 µM |
